Results from patent US8895717B2, “Delivery of siRNA by neutral lipid compositions” (The Board of Regents of the University of Texas System, priority 2005, dated 2014).
d = 2'-deoxy (DNA); r = 2'-OH (RNA)

What was measured:
SKOV3 cells = test: Cytotoxicity assay (MTT), SKOV3; assay type: cell-based, human
Experimental: The medium was exchanged after 48 hours with increasing concentrations of docetaxel (obtained from Aventis Pharma, Bridgewater, N.J.) dissolved in ethanol (final concentration range, 0.1-10,000 nmol/L prepared in medium) or cisplatin (purchased from LKT Laboratories, Inc., St. Paul, Minn.) dissolved in water. After a 96-hour incubation, 50 μL of 0.15% 3-(4,5-dimethylthiazol-2-yl)-2,5-diphenyltetrazolium bromide was added to each well and incubated for 2 hours. The supernatant was removed, and cells were dissolved in 100 μL DMSO. The absorbance at 570 nm was recorded using a FALCON microplate reader (Becton Dickinson Labware, Bedford, Mass.), and cell survival expressed as a percent increase or decrease above control conditions, after subtracting blank A570 readings. The IC50 concentration was determined by finding the A570 reading midpoint between maximal and minimal readings and finding the chemotherapy concentration that intersects the growth curve at that A570 reading.

FAK [1] = test: FAK down-regulation by siRNA in vitro, Western blot; assay type: cell-based, human; settings: for suppression of FAK expression: SKOV3, 72 hours of transfection
Experimental: siRNAs were synthesized and then purified using high-performance liquid chromatgraphy (Qiagen-Xeragon, Germantown, Md.). FAK siRNA sense: r(CCACCUGGGCCAGUAUUAU)d(TT) (SEQ ID NO:7); antisense: r(AUAAUACUGGCCCAGGUGG)d(TT) (SEQ ID NO:8) and control siRNA sense: r(UUUUCCGAACGUGUCACGU)dTT; (SEQ ID NO:9) antisense: r(ACGUGACACGUUCGGAGAA)dTT (SEQ ID NO:10) bearing no sequence homology with any known human mRNA sequences were dissolved in buffer (100 mmol/L potassium acetate, 30 mmol/L HEPES potassium hydroxide, 2 mmol/L magnesium acetate, pH 7.4) to a final concentration of […], heated to 90° C. for 60 seconds, incubated at 37° C. for 60 minutes, and stored at −20° C. until future use.
(§1) Cells were lysed in modified RIPA buffer (50 mM Tris, 150 mM NaCl, 1% triton, 0.5% deoxycholate plus 25 µg/ml leupeptin, 10 µg/ml aprotinin, 2 mM EDTA, and 1 mM sodium orthovanadate (Sigma Chemical Co, St. Louis, Mo.) as previously described (Sood et al., 2004; Sood et al., 2002). A sample was removed from culture dishes by cell scraping and centrifuged at 12,500 rpm for 30 min. The […] protein concentration of the supernatant was determined using a bicinchoninic acid protein assay reagent kit (Pierce, Rockford, Ill.), and whole cell lysates were analyzed by 7.5% SDS-PAGE. Samples were then transferred to nitrocellulose membrane by semi-dry transfer (BioRad Laboratories, Hercules, Calif.). Membranes were blocked with 5% nonfat milk, and incubated with 0.25 μg/mL anti-FAK antibody (Biosource, International Camarillo, Calif.) for 1 h at room temperature. Antibody was detected with 0.167 μg/mL HRP-conjugated anti-mouse secondary antibody (The Jackson Laboratory, Bar Harbor, Me.) and developed with an enhanced chemiluminescence detection kit (Pierce). Equal loading was confirmed by detection of β-actin (0.1 μg/ml, anti-β-actin antibody, Sigma Chemical). Densitometric analysis was performed using the Scion Imaging software (Scion Corporation, Frederick, Md.).
Next, the inventors sought to examine whether FAK silencing using siRNA will sensitize ovarian cancer cells to docetaxel.

FAK [2] = test: In vivo down regulation of FAK by siRNA in DOPC (Western blot, IHC); set-up: species or system human; settings: for FAK expression at the conclusion of the therapy studies: HeyA8, IHC
Experimental: siRNA for in vivo delivery was incorporated into the phospholipid 1,2-dioleoyl-sn-glycero-3-phosphatidylcholine (DOPC). DOPC and siRNA were mixed in the presence of excess tertiary-butanol at a ratio of […], as previously described (Landen et al., 2005). Tween-20 was added to the mixture at a ratio of 1:19. The mixture was vortexed, frozen in an acetone/dry ice bath, and lyophilized. Before in vivo administration, this preparation was hydrated with normal (0.9%) saline at a concentration of 15 μg/ml to achieve the desired dose of 150-200 μl per injection. To estimate the quantity of siRNA not taken up by liposomes free siRNA was separated from liposomes by using filter units with a 30,000 nominal molecular weight limit (Millipore Corp, Billerica, Mass.). The liposomal suspension was added to the filters and centrifuged at 5,000 g for 40 min at room temperature. Fractions were collected, the material trapped in the filter was reconstituted with 0.9% saline, and the amount of siRNA in the collected fraction and eluent were measured by spectrophotometry.
as §1
To evaluate the therapeutic effect of the combination of FAK siRNA and docetaxel in a mouse model, preliminary dose-response studies were performed experiments for FAK siRNA. HeyA8 cells were implanted i.p. and treatment was initiated 21 days following tumor injection when i.p. tumors could be assessed by palpation. Mice were randomly distributed into three groups (n=10 per group) and were treated with a single dose of PBS, control siRNA or FAK siRNA at 150 μg/kg in 200 μl volume. Following treatment, 3 mice were sacrificed at definite time-points (24 h, 48 h, 96 h and 6 days). Fluorescent IHC analysis was performed on any excised peritoneal cavity tumors as described below.
The inventors investigated the inhibition of FAK expression in combination with docetaxel and the in vivo therapeutic potential. Prior to initiating therapy studies, the ability of FAK-targeted siRNA incorporated in DOPC to down-regulate FAK in vivo was assessed. Nude mice bearing intraperitoneal HeyA8 tumors were injected with a single dose of FAK siRNA i.p., and tumors were harvested 1, 2, 4, and 6 days after injection for Western blot analysis and immunohistochemistry for assessing level of FAK expression. […] FAK expression was not affected by control siRNA. Twice weekly administration of siRNA (150 μg/kg) was selected as an exemplary dosing schedule for subsequent therapy experiments.

With “FAK siRNA: sense r(CCACCUGGGCCAGUAUUAU)d(TT), antisense r(AUAAUACUGGCCCAGGUGG)d(TT); for in vivo delivery incorporated into DOPC (sense CCACCUGGGCCAGUAUUAUTT; antisense AUAAUACUGGCCCAGGUGGTT; sugars from the 5' end r19 d2, backbone not given here)” the “fold greater docetaxel cytotoxicity after FAK down-regulation” value (SKOV3 cells; SKOV3, siRNA 48 hours before docetaxel, at 50% cytotoxicity) was roughly 5 fold, the “suppression of FAK expression” value (FAK [1]) was 90% and the “suppression of FAK expression” value (FAK [1]; listed as FAK-specific siRNA) was greater than 90%. For the same substance, the FAK expression (FAK [1]; after 24 hours of treatment) was “detectable decrease in FAK expression”, the “FAK expression at the conclusion of the therapy studies” value (FAK [2]) was “sustained suppression of FAK expression” and the “reduction in FAK levels” value (FAK [2]; HeyA8 tumors, within 48 hours of a single dose in DOPC, Western blot) was greater than 80%. For the same substance, the “persistence of FAK reduction” value (FAK [2]; single dose in DOPC) was “at least 4 days” and the “recovery of FAK expression” value (FAK [2]; single treatment in DOPC) was “began to return to basal levels by 6 days”.
In the case of “control siRNA: sense r(UUUUCCGAACGUGUCACGU)dTT, antisense r(ACGUGACACGUUCGGAGAA)dTT, no homology with human mRNA; in vivo in DOPC (sense UUUUCCGAACGUGUCACGUTT; antisense ACGUGACACGUUCGGAGAATT; sugars from the 5' end r19 d2, backbone not given here)”, the “effect on sensitivity to docetaxel” value (SKOV3 cells; all ovarian cancer cell lines tested) is reported as “did not affect sensitivity of ovarian cancer cells to docetaxel”, the “FAK expression compared with untreated cells” value (FAK [1]; SKOV3) is reported as “did not significantly affect FAK expression” and the “FAK expression at the conclusion of the therapy studies” value (FAK [2]) is reported as “not suppressed”. For the same substance, the FAK expression (FAK [2]; single dose) was “not affected”.
